Reference: ChEMBL document CHEMBL3091428, “Synthesis and initial biological evaluation of substituted 1-phenylamino-2-thio-4,5-dimethyl-1H-imidazole derivatives” (Bioorg Med Chem Lett, 2013)
≈ marks a conversion by molar mass, not a printed value.

Tests used:
[1] = Toxicity in brine shrimp larvae assessed as mortality after 24 hrs; type: organism-based; conditions: artemia salina, in vivo
DU-145 = experiment: Cytotoxicity against human DU145 cells assessed as cell growth after 48 hrs by SRB assay relative to control; type: functional
A549 = experiment: Cytotoxicity against human A549 cells assessed as cell growth after 48 hrs by SRB assay relative to control; type: functional
HT-29 = experiment: Cytotoxicity against human HT-29 cells assessed as cell growth after 48 hrs by SRB assay relative to control; type: functional
IGROV-1 = experiment: Cytotoxicity against human IGROV1 cells assessed as cell growth after 48 hrs by SRB assay relative to control; type: functional
HL-60(TB) = experiment: Cytotoxicity against human HL-60(TB) cells assessed as cell growth after 48 hrs by SRB assay relative to control; type: functional
SK-MEL-2 = experiment: Cytotoxicity against human SK-MEL-2 cells assessed as cell growth after 48 hrs by SRB assay relative to control; type: functional
786-0 = experiment: Cytotoxicity against human 786-0 cells assessed as cell growth after 48 hrs by SRB assay relative to control; type: functional
Staphylococcus aureus = experiment: Antimicrobial activity against Staphylococcus aureus ATCC 25923 after 24 hrs by broth microdilution method; type: functional; conditions: ATCC 25923, 24 h
OVCAR-8 = experiment: Cytotoxicity against human OVCAR8 cells assessed as cell growth after 48 hrs by SRB assay relative to control; type: functional
RXF 393 = experiment: Cytotoxicity against human RXF393 cells assessed as cell growth after 48 hrs by SRB assay relative to control; type: functional
SNB-19 = experiment: Cytotoxicity against human SNB19 cells assessed as cell growth after 48 hrs by SRB assay relative to control; type: functional
CAKI-1 = experiment: Cytotoxicity against human Caki1 cells assessed as cell growth after 48 hrs by SRB assay relative to control; type: functional
Malme-3M = experiment: Cytotoxicity against human MALME-3M cells assessed as cell growth after 48 hrs by SRB assay relative to control; type: functional
PC-3 = experiment: Cytotoxicity against human PC3 cells assessed as cell growth after 48 hrs by SRB assay relative to control; type: functional
SF-268 = experiment: Cytotoxicity against human SF268 cells assessed as cell growth after 48 hrs by SRB assay relative to control; type: functional
[2] = Cytotoxicity against human UO31 cells assessed as cell growth after 48 hrs by SRB assay relative to control; type: functional, UO-31
HOP-92 = experiment: Cytotoxicity against human HOP92 cells assessed as cell growth after 48 hrs by SRB assay relative to control; type: functional
TK-10 = experiment: Cytotoxicity against human TK10 cells assessed as cell growth after 48 hrs by SRB assay relative to control; type: functional
LOX IMVI = experiment: Cytotoxicity against human LOXIMVI cells assessed as cell growth after 48 hrs by SRB assay relative to control; type: functional
SW-620 = experiment: Cytotoxicity against human SW620 cells assessed as cell growth after 48 hrs by SRB assay relative to control; type: functional
Artemia salina [3] = experiment: Toxicity in brine shrimp larvae assessed as mortality at 50 ug/ml after 24 hrs; type: organism-based; conditions: in vivo
Artemia salina [4] = experiment: Toxicity in brine shrimp larvae assessed as mortality at 100 ug/ml after 24 hrs; type: organism-based; conditions: in vivo
BT-549 = experiment: Cytotoxicity against human BT549 cells assessed as cell growth after 48 hrs by SRB assay relative to control; type: functional

SMILES | Activity (DU-145) [%] | Activity (A549) [%] | Activity (HT-29) [%] | Activity (IGROV-1) [%] | Activity (HL-60(TB)) [%] | Activity (SK-MEL-2) [%] | Activity (786-0) [%] | MIC (Staphylococcus aureus) [µg/mL] | Activity (OVCAR-8) [%] | Activity (RXF 393) [%] | Activity (SNB-19) [%] | Activity (CAKI-1) [%] | Activity (Malme-3M) [%] | Activity (PC-3) [%] | Activity (SF-268) [%] | Activity [2] [%] | Activity (HOP-92) [%] | Activity (TK-10) [%] | Activity (LOX IMVI) [%] | Activity (SW-620) [%] | also measured
Cc1nc(SCC(=O)c2ccccc2)n(Nc2ccccc2)c1C | 109.3 | 99.16 | 97.65 | 98.59 | 91 | 97.16 | 106.4 | 800 (≈ 2370 µM) | 99.29 | 103.1 | 98.31 | 88.11 | 103.5 | 102 | 101.9 | 68.6 | 91.79 | 127.6 | 102.1 | 109.1 | LC50 at 24 h [1]: > 1600 µg/mL; Activity (Artemia salina [3]): Non-toxic; Activity (Artemia salina [4]): Non-toxic; Activity (BT-549): 88.93%
COc1ccc(C(=O)CSc2nc(C)c(C)n2Nc2ccccc2)cc1 | 111.6 | 97.35 | 94.25 | 103.3 | 87.13 | 94.21 | 90.03 | 800 (≈ 2180 µM) | 100.7 | 85.48 | 96.63 | 81.41 | 101.4 | 89.35 | 104.5 | 69.91 | 82.74 | 109.3 | 104.8 | 105.7 | Activity (BT-549): 84.66%
Cc1nc(SCC(=O)c2ccc(Cl)cc2)n(Nc2ccccc2)c1C | 115.8 | 86.67 | 99.26 | 102.1 | 92.02 | 91.02 | 97.67 | 800 (≈ 2150 µM) | 96.67 | 96.88 | 89 | 78.89 | 97.11 | 91.86 | 103.9 | 66.15 | 76.51 | 117.2 | 101.4 | 108.9 | Activity (BT-549): 104.7%
